The source of these data is ChEMBL document CHEMBL1122577, “Cardiac glycosides. 1. A systematic study of digitoxigenin D-glycosides” (J Med Chem, 1984).

The test is described as follows: Inhibitory activity against Hog kidney Na+, K+ -Dependent ATPase. Details: species or system Sus scrofa. To be noted: read-out: I50.

Consider `C[C@]12CC[C@H](O[C@@H]3O[C@@H](CO)[C@H](O)[C@H](O)[C@@H]3O)CC1CC[C@@H]1[C@@H]2CC[C@]2(C)[C@@H](C3=CC(=O)OC3)CC[C@@]12O` (stereo partly drawn), for which the IC50 was determined as 64.5 nM.
`C[C@]12CC[C@H](O[C@@H]3O[C@@H](CO)[C@@H](O)[C@H](O)[C@@H]3O)CC1CC[C@@H]1[C@@H]2CC[C@]2(C)[C@@H](C3=CC(=O)OC3)CC[C@@]12O` (stereo partly drawn): the IC50 was 11.7 nM.
In the case of `C[C@@H]1O[C@@H](O[C@H]2CC[C@@]3(C)[C@@H](CC[C@@H]4[C@@H]3CC[C@]3(C)[C@@H](C5=CC(=O)OC5)CC[C@@]43O)C2)C[C@@H]2OC(C)(C)O[C@H]12` it was 41.8 nM.
Take `C[C@@H]1O[C@@H](O[C@H]2CC[C@@]3(C)[C@@H](CC[C@@H]4[C@@H]3CC[C@]3(C)[C@@H](C5=CC(=O)OC5)CC[C@@]43O)C2)C[C@H](O)[C@@H]1O`: the IC50 is 7.04 nM.
Regarding `C[C@]12CC[C@H](O[C@H]3C[C@H](O)[C@H](O)[C@H](CO)O3)C[C@@H]1CC[C@@H]1[C@@H]2CC[C@]2(C)[C@@H](C3=CC(=O)OC3)CC[C@@]12O`, the IC50 was 10.7 nM.
Take `C[C@]12CC[C@H](O[C@@H]3C[C@@H](O)[C@H](O)[C@H](CO)O3)C[C@@H]1CC[C@@H]1[C@@H]2CC[C@]2(C)[C@@H](C3=CC(=O)OC3)CC[C@@]12O`: the IC50 was determined as 28.2 nM.
For the molecule `C[C@]12CC[C@H](O[C@@H]3C[C@H](O)[C@H](O)[C@H](CO)O3)C[C@@H]1CC[C@@H]1[C@@H]2CC[C@]2(C)[C@@H](C3=CC(=O)OC3)CC[C@@]12O`, the IC50 turned out to be 93.3 nM.
As to `C[C@]12CC[C@H](O)C[C@H]1CC[C@@H]1[C@@H]2CC[C@]2(C)[C@@H](C3=CC(=O)OC3)CC[C@]12O` [DIGITOXIGENIN], the IC50 worked out at 117 nM.
